Data from ChEMBL document CHEMBL1143414, “Association of saquinavir plasma concentrations with side effects but not with antiretroviral outcome in patients infected with protease inhibitor-susceptible human immunodeficiency virus type 1” (Antimicrob Agents Chemother, 2007).

Columns and labels:
Settings in all cases: in vivo
[1] = system: Homo sapiens; assay: AUC in HIV1 infected human at 100 mg, po administered twice daily; assay type: ADME, organism-based, Plasma
[2] = system: Homo sapiens; assay: CL/F in HIV1 infected human at 100 mg, po administered twice daily; assay type: ADME, organism-based
[3] = Apparent elimination half life in HIV1 infected human at 100 mg, po administered twice daily; assay type: ADME, organism-based
[4] = Cmax in HIV1 infected human at 100 mg, po administered twice daily; assay type: ADME, organism-based; design: dose 100 mg, route oral
[5] = system: Homo sapiens; assay: Tlag in HIV1 infected human at 100 mg, po administered twice daily; assay type: ADME, organism-based
[6] = Tmax in HIV1 infected human at 100 mg, po administered twice daily; assay type: ADME, organism-based
[7] = Tmax in HIV1 infected human at 1000 mg, po administered twice daily; assay type: ADME, organism-based
[8] = Apparent elimination half life in HIV1 infected human at 1000 mg, po administered twice daily; assay type: ADME, organism-based
[9] = system: Homo sapiens; assay: Tlag in HIV1 infected human at 1000 mg, po administered twice daily; assay type: ADME, organism-based
[10] = system: Homo sapiens; assay: AUC in HIV1 infected human at 1000 mg, po administered twice daily; assay type: ADME, organism-based, Plasma
[11] = Cmax in HIV1 infected human at 1000 mg, po administered twice daily; assay type: ADME, organism-based; design: dose 1000 mg, route oral

For `CC(C)c1nc(CN(C)C(=O)N[C@H](C(=O)N[C@@H](Cc2ccccc2)C[C@H](O)[C@H](Cc2ccccc2)NC(=O)OCc2cncs2)C(C)C)cs1` [RITONAVIR], the AUC [1] was 6399.9 ng·h/mL, the CL/F [2] was 15.6 L/h and the half-life [3] was 4.3 h. For the same compound, the Cmax [4] was 880 ng/mL, the Tlag [5] was 0.25 h and the Tmax [6] was 4 h.

Compound `CC(C)(C)NC(=O)[C@@H]1C[C@@H]2CCCC[C@@H]2CN1C[C@@H](O)[C@H](Cc1ccccc1)NC(=O)[C@H](CC(N)=O)NC(=O)c1ccc2ccccc2n1` [SAQUINAVIR] has a Tmax [7] of 4 h, a half-life [8] of 3.7 h and a Tlag [9] of 0 h. The AUC [10] was 17546.5 ng·h/mL and the Cmax [11] was 2620 ng/mL.
